Data reported in patent publication US9527807B2, “Sulfonamide derivative and use thereof” (Takeda Pharmaceutical Company Limited, priority 2011, dated 2016).

target: T1, AMPA receptor (human GluR1 flip/stargazin expressed in CHO-K1 cells) (Homo sapiens, UniProt P42261); test: AMPA receptor function enhancing activity using calcium influx as index; type: cell-based; settings: change in fluorescence level in 3 min, 100% = 3 mM glutamic acid + 300 μM cyclothiazide, 0% = 3 mM glutamic acid only
T1 construct: expressed in transfected cells; host or cells: CHO-K1
T1 sequence (P42261 19-906 isoform P42261-2 limits assumed): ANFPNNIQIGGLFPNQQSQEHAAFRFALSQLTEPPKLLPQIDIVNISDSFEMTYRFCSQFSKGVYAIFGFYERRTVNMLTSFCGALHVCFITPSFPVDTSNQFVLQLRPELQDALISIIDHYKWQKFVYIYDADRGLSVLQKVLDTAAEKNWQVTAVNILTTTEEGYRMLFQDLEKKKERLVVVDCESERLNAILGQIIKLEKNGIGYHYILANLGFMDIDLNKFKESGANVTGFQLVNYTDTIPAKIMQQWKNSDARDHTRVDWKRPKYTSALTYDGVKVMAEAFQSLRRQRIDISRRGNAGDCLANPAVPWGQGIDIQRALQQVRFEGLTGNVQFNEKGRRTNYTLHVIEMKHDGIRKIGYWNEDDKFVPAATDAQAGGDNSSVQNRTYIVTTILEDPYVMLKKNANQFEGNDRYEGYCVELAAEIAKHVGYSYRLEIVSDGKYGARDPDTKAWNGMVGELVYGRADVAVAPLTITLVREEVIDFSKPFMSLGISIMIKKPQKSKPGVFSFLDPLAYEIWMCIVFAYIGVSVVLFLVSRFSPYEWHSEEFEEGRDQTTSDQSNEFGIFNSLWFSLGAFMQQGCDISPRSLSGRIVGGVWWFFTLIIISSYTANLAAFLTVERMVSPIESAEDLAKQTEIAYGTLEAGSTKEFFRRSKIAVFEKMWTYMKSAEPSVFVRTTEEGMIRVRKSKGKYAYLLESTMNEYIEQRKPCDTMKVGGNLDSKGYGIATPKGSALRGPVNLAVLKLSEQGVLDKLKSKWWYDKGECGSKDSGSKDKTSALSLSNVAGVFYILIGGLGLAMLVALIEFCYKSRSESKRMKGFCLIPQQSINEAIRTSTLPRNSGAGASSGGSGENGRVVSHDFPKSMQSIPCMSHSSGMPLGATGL
T1 sequence (Q9Y698 whole entry partner): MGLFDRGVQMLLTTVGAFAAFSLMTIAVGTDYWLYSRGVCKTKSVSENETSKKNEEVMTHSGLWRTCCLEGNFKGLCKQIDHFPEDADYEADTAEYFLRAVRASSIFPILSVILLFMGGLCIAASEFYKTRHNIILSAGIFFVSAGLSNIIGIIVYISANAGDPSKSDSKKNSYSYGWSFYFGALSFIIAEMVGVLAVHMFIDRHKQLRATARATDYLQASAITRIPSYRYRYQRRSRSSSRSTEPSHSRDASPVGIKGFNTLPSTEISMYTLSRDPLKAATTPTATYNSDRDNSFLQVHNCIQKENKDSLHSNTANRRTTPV
Excerpt: Human GluR1 flip cDNA was amplified by PCR using forward primer […] (SEQ ID NO: 1) and reverse primer […] (SEQ ID NO: 2) artificially synthesized using human brain-derived cDNA (BD Bio science) as a template. The amplified product was digested with restriction enzymes EcoRI, NotI (TAKARA SHUZO CO. LTD.), and incorporated into the same site of pcDNA3.1(+) (Invitrogen) to construct pcDNA3.1(+)/human GluR1 flip gene. Human stargazin cDNA was amplified by PCR using forward primer […] (SEQ ID NO: 3) and reverse primer. […] (SEQ ID NO: 4) artificially synthesized using human hippocampus cDNA as a template. The amplified product was digested with restriction enzymes XhoI, BamHI (TAKARA SHUZO CO. LTD.), and incorporated into the same site of pcDNA3.1(−) (Invitrogen) to construct pcDNA3.1 Zeo(−)/human stargazin gene.
(2) Construction of GluR1 Flip/Stargazin Expressing Cell
CHO-K1 cells passaged in a culture medium (Ham's F12 medium (Invitrogen) added with 10% inactivated fetal bovine serum (Morgate) and penicillin, streptomycin (Invitrogen)) were detached with 0.05% trypsin, 0.53 mM EDTA (Invitrogen) diluted with D-PBS(−). The detached cells were suspended in a culture medium, and recovered by a centrifugation operation at 1,000 rpm. The recovered cells were suspended again in D-PBS(−), and added to a 0.4 cm electroporation cuvette (BioRad). pcDNA3.1(+)/human GluR1 flip gene (5 μg) and pcDNA3.1 Zeo(−)/human stargazin gene (15 μg) were added, and the mixture was introduced into CHO-K1 cells using Gene Pulser II (BioRad) under the conditions of 950 μFd, […]. The introduced cells were cultured overnight in a culture medium and, the next day, plated in a 96 well plate at 250 cells/well using a selection medium (culture medium added with Zeocin (Invitrogen) to 250 μg/mL). Clones showing drug resistance were selected, and GluR1 flip/stargazin expressing clones were selected by an assay method using calcium influx as an index as shown below.
(3) Measurement Method of AMPA Receptor Function Enhancing Activity of Compound Using Calcium Influx as Index
CHO-K1/GluR1 flip/stargazin expressing cells were plated on a 384 well black transparent bottom plate (FMAT4307723) at 0.5×10^4 cells/well, and cultured in a 37° C., CO2 incubator (SANYO Electric Co., Ltd.) for 2 days. The medium in the cell plate was removed, and a calcium indicator (Calcium 4 Assay Kit, Molecular. Devices) containing 1.25 mM probenecid (Invitrogen) was added at 25 μL/well and the well was left standing in 37° C., CO2 incubator for 1 hr. The cell plate was set in FLITRtetra (Molecular Devices), a mixture (12.5 μL) of 9 mM glutamic acid diluted with assay buffer B (HBSS (Invitrogen), 0.1% BSA, 10 mM HEPES) and a test compound was added, and the amount of change in fluorescence level in 3 min was measured. In the definition here, the amount of change in fluorescence level of well added with glutamic acid at final concentration 3 mM and 300 μM cyclothiazide (TOCRIS) is 100%, the amount of change in fluorescence level of well added only with glutamic acid at final concentration 3 mM is 0%, and the compound activity was calculated according to the following formula. activity (%)=(X−C)/(T−C)×100 T: amount of change in fluorescence level of well added with glutamic acid at final concentration 3 mM and 300 μM cyclothiazide C: amount of change in fluorescence level of well added only with glutamic acid at final concentration 3 mM X: amount of change in fluorescence level of well added with to test compound

Row | activity (%) | SMILES
1 | 101 | CS(=O)(=O)N[C@H]1CCC(F)(F)C[C@@H]1COc1ccc(-c2ccc(C#N)cn2)cc1 [Example 268, N-[(1S,2S)-2-{[4-(5-cyanopyridin-2-yl)phenoxy]methyl}-4,4-difluorocyclohexyl]methanesulfonamide]
2 | 88 | CS(=O)(=O)N[C@H]1CCSC[C@@H]1COc1ccc(C2CCOCC2)cc1 [Example 519, N-((3S,4S)-3-((4-(tetrahydro-2H-pyran-4-yl)phenoxy)methyl)tetrahydro-2H-thiopyran-4-yl)methanesulfonamide]
3 | 85 | CCS(=O)(=O)N[C@H]1COCC[C@@H]1COc1ccc(-c2ccc(Cl)cn2)cc1 [Example 209, N-[(3R,4S)-4-{[4-(5-chloropyridin-2-yl)phenoxy]methyl}tetrahydro-2H-pyran-3-yl]ethanesulfonamide]
4 | 89 | CCS(=O)(=O)N[C@H]1CCSC[C@@H]1COc1ccc(C2CCOCC2)cc1 [Example 529, N-((3S,4S)-3-((4-(tetrahydro-2H-pyran-4-yl)phenoxy)methyl)tetrahydro-2H-thiopyran-4-yl)ethanesulfonamide]
5 | 81 | CCS(=O)(=O)N[C@H]1CCOC[C@@H]1COc1ccc(OC(F)F)cc1 (single isomer, unassigned) [Example 124, trans-N-[3-{[4-(difluoromethoxy)phenoxy]methyl}tetrahydro-2H-pyran-4-yl]ethanesulfonamide]
6 | 60 | O=S(=O)(N[C@H]1COCC[C@@H]1COc1ccc(-c2ncc(Cl)cc2F)cc1)C1CC1 [Example 383, N-[(3R,4S)-4-{[4-(5-chloro-3-fluoropyridin-2-yl)phenoxy]methyl}tetrahydro-2H-pyran-3-yl]cyclopropanesulfonamide]
7 | 90 | O=S(=O)(N[C@H]1CCOC[C@@H]1COc1ccc(-n2cc(Cl)cn2)cc1)C1CC1 [Example 277, N-[(3R,4S)-3-{[4-(4-chloro-1H-pyrazol-1-yl)phenoxy]methyl}tetrahydro-2H-pyran-4-yl]cyclopropanesulfonamide]
8 | 91 | CCS(=O)(=O)N[C@H]1CCOC[C@@H]1COc1ccc(C2CC2)cc1 (relative stereo) [Example 7, trans-N-{3-[(4-cyclopropylphenoxy)methyl]tetrahydro-2H-pyran-4-yl}ethanesulfonamide]
9 | 75 | CCS(=O)(=O)N[C@H]1CCCC[C@@H]1COc1ccc(C(C)=O)cc1 (relative stereo) [Example 89, trans-N-{2-[(4-acetylphenoxy)methyl]cyclohexyl}ethane-sulfonamide]
10 | 98 | CS(=O)(=O)N[C@H]1COCC[C@@H]1COc1ccc(-c2ncc(F)cn2)cc1 [Example 283, N-[(3R,4S)-4-{[4-(5-fluoropyrimidin-2-yl)phenoxy]methyl}tetrahydro-2H-pyran-3-yl]methanesulfonamide]
11 | 73 | CCS(=O)(=O)N[C@H]1COCC[C@@H]1COc1ccc(C(C)C)cc1 (relative stereo) [Example 95, trans-N-[4-{[4-(1-methylethyl)phenoxy]methyl}tetrahydro-2H-pyran-3-yl]ethanesulfonamide]
12 | 82 | CC(C)S(=O)(=O)N[C@H]1CCCC[C@@H]1COc1ccc(C2CC2)cc1 (relative stereo) [Example 21, trans-N-{2-[(4-cyclopropylphenoxy)methyl]cyclohexyl}propane-2-sulfonamide]
13 | 68 | CS(=O)(=O)N[C@H]1CCOC[C@@H]1COc1ccc(-c2ccc(F)cn2)c(F)c1 (single isomer, unassigned) [Example 477, N-[(3R,4S)-3-{[3-fluoro-4-(5-fluoropyridin-2-yl)phenoxy]methyl}tetrahydro-2H-pyran-4-yl]methanesulfonamide or N-[(3S,4R)-3-{[3-fluoro-4-(5-fluoropyridin-2-yl)phenoxy]methyl}tetrahydro-2H-pyran-4-yl]methanesulfonamide]
14 | 57 | CCS(=O)(=O)N[C@H]1CCN(C(C)=O)C[C@@H]1COc1ccc(-n2cccn2)cc1 (relative stereo) [Example 3, trans-N-[1-acetyl-3-{[4-(1H-pyrazol-1-yl)phenoxy]methyl}piperidin-4-yl]ethanesulfonamide]
15 | 77 | CCS(=O)(=O)N[C@H]1CCOC[C@@H]1COc1ccc(C(C)C)cc1 (relative stereo) [Example 34, trans-N-{3-[(4-isopropylphenoxy)methyl]tetrahydro-2H-pyran-4-yl}ethanesulfonamide]
16 | 95 | Cn1cccc(-c2ccc(OC[C@H]3CSCC[C@@H]3NS(C)(=O)=O)cc2)c1=O [Example 518, N-((3S,4S)-3-((4-(1-methyl-2-oxo-1,2-dihydropyridin-3-yl)phenoxy)methyl)tetrahydro-2H-thiopyran-4-yl)methanesulfonamide]
17 | 95 | CCS(=O)(=O)N[C@H]1CCSC[C@@H]1COc1ccc(-n2cc(C#N)cn2)cc1 [Example 522, N-((3S,4S)-3-((4-(4-cyano-1H-pyrazol-1-yl)phenoxy)methyl)tetrahydro-2H-thiopyran-4-yl)ethanesulfonamide]
18 | 89 | CCS(=O)(=O)N[C@H]1CCOC[C@@H]1COc1ccc(-n2cc(Cl)cn2)cc1F [Example 454, N-[(3R,4S)-3-{[4-(4-chloro-1H-pyrazol-1-yl)-2-fluorophenoxy]methyl}tetrahydro-2H-pyran-4-yl]ethanesulfonamide]
19 | 96 | O=S(=O)(N[C@H]1CCCO[C@@H]1COc1ccc(-c2ccc(F)cn2)cc1)C1CC1 [Example 282, 1,5-anhydro-4-[(cyclopropylsulfonyl)amino]-2,3,4-trideoxy-6-β-[4-(5-fluoropyridin-2-yl)phenyl]-D-erythro-hexitol]
20 | 89 | O=S(=O)(N[C@H]1CCOC[C@@H]1COc1ccc(-c2ncc(Cl)cc2F)cc1)C1CC1 (racemic) [Example 262, N-[(3RS,4SR)-3-{[4-(5-chloro-3-fluoropyridin-2-yl)phenoxy]methyl}tetrahydro-2H-pyran-4-yl]cyclopropanesulfonamide]
21 | 92 | CCS(=O)(=O)N[C@H]1CCOC[C@@H]1COc1ccc(-c2ncc(Cl)s2)cc1 (racemic) [Example 261, N-[(3RS,4SR)-3-{[4-(5-chloro-1,3-thiazol-2-yl)phenoxy]methyl}tetrahydro-2H-pyran-4-yl]ethanesulfonamide]
22 | 78 | CS(=O)(=O)N[C@H]1CCCO[C@@H]1COc1ccc(C2CC2)cc1 (racemic) [Example 5, 1,5-anhydro-6-O-(4-cyclopropylphenyl)-2,3,4-trideoxy-4-[(methylsulfonyl)amino]-DL-erythrohexitol]
23 | 65 | CS(=O)(=O)N[C@H]1COCC[C@@H]1COc1ccc(-c2ccc(Cl)cn2)cc1 [Example 205, N-[(3R,4S)-4-{[4-(5-chloropyridin-2-yl)phenoxy]methyl}tetrahydro-2H-pyran-3-yl]methanesulfonamide]
24 | 101 | CS(=O)(=O)N[C@H]1CCC(F)(F)C[C@@H]1COc1ccc(-c2ncc(C#N)cc2F)cc1 [Example 215, N-[(1S,2S)-2-{[4-(5-cyano-3-fluoropyridin-2-yl)phenoxy]methyl}-4,4-difluorocyclohexyl]methanesulfonamide]
25 | 91 | O=S(=O)(N[C@H]1CCOC[C@@H]1COc1ccc(-c2ncc(Cl)cc2F)cc1)C1CC1 [Example 256, N-[(3R,4S)-3-{[4-(5-chloro-3-fluoropyridin-2-yl)phenoxy]methyl}tetrahydro-2H-pyran-4-yl]cyclopropanesulfonamide]
